# Data from US20230054926A1, “COMPOSITIONS AND METHODS FOR MICROBIAL TREATMENT OF SKIN DISORDERS” (DUPONT US HOLDING, LLC, priority 2020, published 2023).
# Tested on: M. globosa
# Test: Flow cytometry analysis of M. globosa growth inhibition by cell free fermentate
# Format: cell-based, Malassezia globosa
# Settings: Example 6, 200 μl supernatant + 800 μl diluted culture, vs respective media control, amphotericin B 2.5 μg/ml
# Protocol: The growth medium for Malassezia species was a modified Leeming & Notman (mLN) media that contained 10 g/L bacteriological peptone, 2 g/L yeast extract, 8 g/L desiccated ox bile, 10 ml/L glycerol, 0.5 g/L glycerol monostearate, 5 ml/L Tween-60 and 20 ml/L palm oil.
# Lipid emulsion by the presence of lipids and surfactants in the mLN media as well as cell clumping phenotype of Malassezia spp, make it difficult to monitor cell growth by optical density measurement or colony counting after spreading a culture aliquot on plates, To circumvent this issue, flow cytometry with cell staining dyes was used to quantitatively measure cell growth in lipid emulsion media. […]
# At different time points, 50 μl aliquot from each culture was subjected to mild sonication with amplitude of 5 and 1 sec on/off cycle for 30 sec using Qsonica 0700 (Qsonica, Newtown, Conn.). […] The samples were analyzed by flow cytometry using a Novocyte Quanteon (Asea). SytoBC, a cell permeable DNA/RNA intercalating dye was excited by the 488 laser and detected using a 530/30 bandwidth filter. Concanavalin A, a mannose binding lectin labeled with alexaFluor 640, was excited with the 637 nm laser and detected using a 660/20 bandwidth filter. […] Malassezia cell counts were determined by gating on high sytoBC, high ConA events and recording the event/ul values for each sample. […]
smiles,measurement,setting,value
"C[C@@H]1[C@H](O)[C@@H](C)/C=C/C=C/C=C/C=C/C=C/C=C/C=C/[C@H](O[C@@H]2O[C@H](C)[C@@H](O)[C@H](N)[C@@H]2O)C[C@@H]2O[C@](O)(C[C@@H](O)C[C@@H](O)[C@H](O)CC[C@@H](O)C[C@@H](O)CC(=O)O[C@H]1C)C[C@H](O)[C@H]2C(=O)O [Amphotericin B, amphotericin B]",% M. globosa growth inhibition,Day 1,4%
same,% M. globosa growth inhibition,Day 3,88%
